In ChEMBL document CHEMBL4828766 (J Med Chem, 2021):
Square brackets hold non-standard residues; d marks the D form. Peptide text beside a SMILES is read from it. dPhe(4-I) = N[C@H](Cc1ccc(I)cc1)C(=O)O; 2Nal = N[C@@H](Cc1ccc2ccccc2c1)C(=O)O; d2Nal = N[C@H](Cc1ccc2ccccc2c1)C(=O)O

Tests used:
Format in all cases: functional, cell-based
[1] = target: Melanocyte-stimulating hormone receptor (Mus musculus) (UniProt Q01727); assay: Partial agonist activity at mouse MC1R expressed in HEK293 cells assessed as induction of cAMP level at 100 uM incubated for 2 hr by alphaScreen assay relative to control
Chain of Melanocyte-stimulating hormone receptor (Mus musculus) (Q01727 whole entry, looked up): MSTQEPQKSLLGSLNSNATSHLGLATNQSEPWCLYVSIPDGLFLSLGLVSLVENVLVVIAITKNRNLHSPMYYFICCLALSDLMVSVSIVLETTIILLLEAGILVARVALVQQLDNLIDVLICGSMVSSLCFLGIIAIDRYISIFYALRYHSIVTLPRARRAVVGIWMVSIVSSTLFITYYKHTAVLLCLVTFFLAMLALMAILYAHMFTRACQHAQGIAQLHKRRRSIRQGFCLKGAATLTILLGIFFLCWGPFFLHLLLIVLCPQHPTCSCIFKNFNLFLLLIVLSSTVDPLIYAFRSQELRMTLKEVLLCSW

Melanocortin receptor 5 = Melanocortin receptor 5 (Mus musculus, UniProt P41149); assay: Agonist activity at mouse MC5R expressed in HEK293 cells assessed as induction of cAMP level at 100 uM incubated for 2 hr by alphaScreen assay
Chain of Melanocortin receptor 5 (P41149 whole entry): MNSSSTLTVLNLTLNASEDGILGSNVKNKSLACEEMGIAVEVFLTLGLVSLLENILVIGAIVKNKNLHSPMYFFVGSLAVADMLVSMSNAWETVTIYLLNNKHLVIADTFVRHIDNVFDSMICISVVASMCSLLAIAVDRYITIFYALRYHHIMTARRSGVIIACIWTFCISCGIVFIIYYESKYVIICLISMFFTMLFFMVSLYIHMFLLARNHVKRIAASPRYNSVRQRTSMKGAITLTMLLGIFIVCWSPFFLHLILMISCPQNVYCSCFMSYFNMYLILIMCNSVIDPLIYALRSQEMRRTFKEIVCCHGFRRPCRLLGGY

Melanocortin receptor 4 [2] = target: T1, Melanocortin receptor 4 (Mus musculus, UniProt P56450); assay: Antagonist activity at mouse melanocortin receptor 4 expressed in HEK293 cells assessed as inhibition of NDP-MSH-induced cAMP accumulation incubated for 2 hrs by cAMP Alpha-screen assay based Schild analysis; settings: for Kb: read-out: pA2 (converted)
T1 sequence (P56450 whole entry): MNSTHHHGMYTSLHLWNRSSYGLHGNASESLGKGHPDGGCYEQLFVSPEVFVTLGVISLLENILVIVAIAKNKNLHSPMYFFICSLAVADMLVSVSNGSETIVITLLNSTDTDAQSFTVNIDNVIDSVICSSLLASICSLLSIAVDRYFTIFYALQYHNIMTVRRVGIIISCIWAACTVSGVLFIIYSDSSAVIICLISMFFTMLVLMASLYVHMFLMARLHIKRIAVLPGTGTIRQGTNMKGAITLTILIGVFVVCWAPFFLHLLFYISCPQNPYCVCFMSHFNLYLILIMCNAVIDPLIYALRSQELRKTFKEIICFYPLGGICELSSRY

[3] = target: Melanocortin receptor 4 (Mus musculus) (UniProt P56450); assay: Agonist activity at mouse MC4R expressed in HEK293 cells assessed as induction of cAMP level at 100 uM incubated for 2 hr by alphaScreen assay relative to control
Chain of Melanocortin receptor 4 (Mus musculus) (P56450 whole entry): as above

Melanocortin receptor 3 [4] = target: T2, Melanocortin receptor 3 (Mus musculus, UniProt P33033); assay: Agonist activity at mouse MC3R expressed in HEK293 cells assessed as induction of cAMP level incubated for 2 hr by alphaScreen assay
T2 sequence (P33033 whole entry): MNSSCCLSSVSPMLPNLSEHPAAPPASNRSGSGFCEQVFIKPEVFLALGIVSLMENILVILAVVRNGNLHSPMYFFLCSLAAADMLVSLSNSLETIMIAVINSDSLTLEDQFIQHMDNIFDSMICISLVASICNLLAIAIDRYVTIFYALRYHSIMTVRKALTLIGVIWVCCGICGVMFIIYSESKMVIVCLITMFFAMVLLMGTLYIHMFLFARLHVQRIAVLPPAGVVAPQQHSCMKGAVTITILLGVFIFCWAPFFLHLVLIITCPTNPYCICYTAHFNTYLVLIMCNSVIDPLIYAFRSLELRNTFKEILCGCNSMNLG

[5] = target: T3, Melanocyte-stimulating hormone receptor (Mus musculus, UniProt Q01727); assay: Agonist activity at mouse MC1R expressed in HEK293 cells assessed as induction of cAMP level at 100 uM incubated for 2 hr by alphaScreen assay
T3 sequence (Q01727 whole entry): as the sequence (Q01727 whole entry, looked up) above

Melanocortin receptor 3 [6] = target: T2, Melanocortin receptor 3; assay: Antagonist activity at mouse melanocortin receptor 3 expressed in HEK293 cells assessed as inhibition of NDP-MSH-induced cAMP accumulation incubated for 2 hrs by cAMP Alpha-screen assay based Schild analysis; settings: for Kb: read-out: pA2 (converted)
[7] = target: Melanocyte-stimulating hormone receptor (Mus musculus) (UniProt Q01727); assay: Agonist activity at mouse MC1R expressed in HEK293 cells assessed as induction of cAMP level at 100 uM incubated for 2 hr by alphaScreen assay relative to NDP-MSH
[8] = target: Melanocortin receptor 5 (Mus musculus) (UniProt P41149); assay: Agonist activity at mouse MC5R expressed in HEK293 cells assessed as induction of cAMP level at 100 uM incubated for 2 hr by alphaScreen assay relative to control
Chain of Melanocortin receptor 5 (Mus musculus) (P41149 whole entry): as the sequence (P41149 whole entry) above

Melanocortin receptor 4 [9] = target: T1, Melanocortin receptor 4; assay: Agonist activity at mouse MC4R expressed in HEK293 cells assessed as induction of cAMP level incubated for 2 hr by alphaScreen assay
[10] = target: T3, Melanocyte-stimulating hormone receptor; assay: Partial agonist activity at mouse MC1R expressed in HEK293 cells assessed as induction of cAMP level incubated for 2 hr by alphaScreen assay
[11] = target: Melanocortin receptor 3 (Mus musculus) (UniProt P33033); assay: Agonist activity at mouse MC3R expressed in HEK293 cells assessed as induction of cAMP level at 100 uM incubated for 2 hr by alphaScreen assay relative to control
Chain of Melanocortin receptor 3 (Mus musculus) (P33033 whole entry): as the sequence (P33033 whole entry) above

SMILES	EC50 (Melanocortin receptor 5) [nM]	Kb (Melanocortin receptor 4 [2]) [nM]	Activity [3] [%]	EC50 (Melanocortin receptor 3 [4]) [nM]	Kb (Melanocortin receptor 3 [6]) [nM]	EC50 (Melanocortin receptor 4 [9]) [nM]	Ki (Melanocortin receptor 4 [2]) [nM]	Ki (Melanocortin receptor 3 [6]) [nM]	also measured
CC(=O)N[C@H](Cc1ccc(I)cc1)C(=O)N[C@@H](CCCNC(=N)N)C(=O)N[C@H](Cc1ccc2ccccc2c1)C(=O)N[C@H](CCCCN)C(N)=O (Ac-[dPhe(4-I)]R[d2Nal][dK]-NH2)	–	–	–	–	–	–	–	–	Activity [1]: 30%
CC(=O)N[C@H](Cc1ccc2ccccc2c1)C(=O)N[C@@H](CCCNC(=N)N)C(=O)N[C@@H](Cc1ccc2ccccc2c1)C(=O)N[C@@H](CCCNC(=N)N)C(N)=O (Ac-[d2Nal]R[2Nal]R-NH2)	> 100000	1.58	30	> 100000	100	–	–	–	EC50 [5]: > 100000 nM
CC(=O)N[C@H](Cc1ccc2ccccc2c1)C(=O)N[C@H](Cc1ccc2ccccc2c1)C(=O)N[C@@H](Cc1ccc2ccccc2c1)C(=O)N[C@@H](CCCNC(=N)N)C(N)=O	–	> 3160	–	> 100000	> 3160	> 100000	–	–	Activity ([7]; filed as agonist): 55%; Activity ([8]; filed as agonist): 40%
CC(=O)N[C@H](Cc1ccc(I)cc1)C(=O)N[C@@H](CCCNC(=N)N)C(=O)N[C@@H](Cc1c[nH]c2ccccc12)C(=O)N[C@@H](CCCNC(=N)N)C(N)=O (Ac-[dPhe(4-I)]RWR-NH2)	> 100000	2	–	–	39.8	> 100000	2	40	Activity ([1]; filed as partial agonist): 50%; EC50 [10]: 7900 nM; Activity [11]: 25%
CC(=O)N[C@H](Cc1ccc(I)cc1)C(=O)N[C@@H](CCCNC(=N)N)C(=O)N[C@@H](Cc1c[nH]c2ccccc12)C(=O)N[C@H](Cc1ccc2ccccc2c1)C(N)=O (Ac-[dPhe(4-I)]RW[d2Nal]-NH2)	> 100000	25.1	35	–	1000	–	25	1000	Activity ([7]; filed as agonist): 45%; Activity [11]: 25%
CC(=O)N[C@H](Cc1ccc2ccccc2c1)C(=O)N[C@@H](CCCNC(=N)N)C(=O)N[C@H](Cc1ccc(I)cc1)C(=O)N[C@H](Cc1ccc2ccccc2c1)C(N)=O (Ac-[d2Nal]R[dPhe(4-I)][d2Nal]-NH2)	–	–	30	–	–	–	–	–	Activity ([8]; filed as agonist): 40%
CC(=O)N[C@H](Cc1ccc2ccccc2c1)C(=O)N[C@H](Cc1ccc2ccccc2c1)C(=O)N[C@@H](Cc1c[nH]c2ccccc12)C(=O)N[C@@H](CCCNC(=N)N)C(N)=O (Ac-[d2Nal][d2Nal]WR-NH2)	–	> 3160	–	–	> 3160	–	–	–	Activity ([7]; filed as agonist): 45%; Activity ([3]; filed as agonist): 60%; Activity ([8]; filed as agonist): 45%; Activity [11]: 35%
CC(=O)N[C@H](Cc1ccc2ccccc2c1)C(=O)N[C@@H](CCCNC(=N)N)C(=O)N[C@@H](Cc1c[nH]c2ccccc12)C(=O)N[C@H](Cc1ccc2ccccc2c1)C(N)=O (Ac-[d2Nal]RW[d2Nal]-NH2)	> 100000	100	30	–	2000	–	–	–	Activity ([11]; filed as agonist): 40%
CC(=O)N[C@H](Cc1ccc2ccccc2c1)C(=O)N[C@@H](CCCNC(=N)N)C(=O)N[C@H](Cc1ccc2ccccc2c1)C(=O)N[C@H](CCCCN)C(N)=O (Ac-[d2Nal]R[d2Nal][dK]-NH2)	> 100000	6.31	–	> 100000	1000	> 100000	–	–	Activity [1]: 30%; EC50 [10]: 6000 nM
CC(=O)N[C@H](Cc1ccc(I)cc1)C(=O)N[C@@H](CCCNC(=N)N)C(=O)N[C@H](Cc1ccc(I)cc1)C(=O)N[C@H](CCCCN)C(N)=O (Ac-[dPhe(4-I)]R[dPhe(4-I)][dK]-NH2)	> 100000	3.16	–	> 100000	31.6	> 100000	3.2	32	EC50 [5]: 35 nM
CC(=O)N[C@H](Cc1ccc(I)cc1)C(=O)N[C@@H](CCCNC(=N)N)C(=O)N[C@H](Cc1ccc2ccccc2c1)C(=O)N[C@H](Cc1ccc2ccccc2c1)C(N)=O (Ac-[dPhe(4-I)]R[d2Nal][d2Nal]-NH2)	–	200	–	–	794	–	200	790	Activity ([7]; filed as agonist): 80%; Activity ([3]; filed as agonist): 45%; Activity [8]: 20%; Activity ([11]; filed as agonist): 45%
CC(=O)N[C@H](Cc1ccc2ccccc2c1)C(=O)N[C@@H](CCCNC(=N)N)C(=O)N[C@H](Cc1ccc2ccccc2c1)C(=O)N[C@@H](CCCNC(=N)N)C(N)=O (Ac-[d2Nal]R[d2Nal]R-NH2)	> 100000	5.01	–	> 100000	794	> 100000	–	–	Activity ([1]; filed as partial agonist): 60%; EC50 [10]: 1000 nM
CC(=O)N[C@H](Cc1ccc2ccccc2c1)C(=O)N[C@H](Cc1ccc2ccccc2c1)C(=O)N[C@H](Cc1ccc2ccccc2c1)C(=O)N[C@@H](CCCNC(=N)N)C(N)=O	–	> 3160	25	–	> 3160	–	–	–	Activity [7]: 30%; Activity [11]: 35%
CC(=O)N[C@H](Cc1ccc(I)cc1)C(=O)N[C@@H](CCCNC(=N)N)C(=O)N[C@H](Cc1ccc(I)cc1)C(=O)N[C@H](Cc1ccc2ccccc2c1)C(N)=O (Ac-[dPhe(4-I)]R[dPhe(4-I)][d2Nal]-NH2)	–	251	–	–	501	–	250	500	Activity ([3]; filed as agonist): 40%; EC50 [5]: 1100 nM; Activity ([8]; filed as agonist): 65%; Activity ([11]; filed as agonist): 40%
CC(=O)N[C@H](Cc1ccc2ccccc2c1)C(=O)N[C@@H](CCCNC(=N)N)C(=O)N[C@@H](Cc1ccc2ccccc2c1)C(=O)N[C@H](Cc1ccc2ccccc2c1)C(N)=O (Ac-[d2Nal]R[2Nal][d2Nal]-NH2)	–	200	30	–	> 3160	–	–	–	Activity [8]: 25%; Activity [11]: 30%
CC(=O)N[C@H](Cc1ccc(I)cc1)C(=O)N[C@H](Cc1ccc2ccccc2c1)C(=O)N[C@H](Cc1ccc2ccccc2c1)C(=O)N[C@@H](CCCNC(=N)N)C(N)=O (Ac-[dPhe(4-I)][d2Nal][d2Nal]R-NH2)	230	> 3160	–	> 100000	> 3160	> 100000	–	–	EC50 [5]: > 100000 nM
CC(=O)N[C@H](Cc1ccc2ccccc2c1)C(=O)N[C@@H](CCCNC(=N)N)C(=O)N[C@@H](Cc1ccc2ccccc2c1)C(=O)N[C@H](CCCCN)C(N)=O (Ac-[d2Nal]R[2Nal][dK]-NH2)	> 100000	15.8	–	> 100000	631	> 100000	–	–	Activity ([1]; filed as partial agonist): 50%; EC50 [10]: 3300 nM
CC(=O)N[C@H](Cc1ccc2ccccc2c1)C(=O)N[C@@H](CCCNC(=N)N)C(=O)N[C@H](Cc1ccc2ccccc2c1)C(=O)N[C@H](Cc1ccc2ccccc2c1)C(N)=O (Ac-[d2Nal]R[d2Nal][d2Nal]-NH2)	–	501	–	–	2000	–	–	–	Activity ([1]; filed as partial agonist): 85%; Activity ([3]; filed as agonist): 45%; EC50 [10]: 5000 nM; Activity [8]: 20%; Activity ([11]; filed as agonist): 50%
CC(=O)N[C@H](Cc1ccc(I)cc1)C(=O)N[C@@H](CCCNC(=N)N)C(=O)N[C@H](Cc1ccc(I)cc1)C(=O)N[C@@H](CCCNC(=N)N)C(N)=O (Ac-[dPhe(4-I)]R[dPhe(4-I)]R-NH2)	> 100000	3.16	–	> 100000	39.8	> 100000	3.2	40	EC50 [5]: 7 nM
